Assay results reported in patent US8324264B1, “Inhibitors of bacterial biofilms and related methods” (Sequoia Sciences, Inc., priority 2011, dated 2012).
Values after ≈ are worked out from the molar mass of the structure shown.

Columns and labels:
P. aeruginosa biofilms = test: Biofilm growth assay (spreading biofilm on semi-solid agar), P. aeruginosa; format: cell-based; conditions: biofilm growth assay, overnight 37° C., vs negative controls, Tables 1-5; for IC85: Pseudomonas aeruginosa, read-out: P. aeruginosa: concentration that reduces the area of the spreading biofilm by greater than or equal to 85%
Method in brief: (§1)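 Values are compound concentrations (μg/ml) that cut the spreading-biofilm zone area by ≥85% relative to negative controls after overnight 37 °C growth from 5 μL central inoculum. E. coli plates: LB, 0.6% agar, 0.5% glucose; P. aeruginosa plates: M8 agar plus 0.2% glucose, 100 μM CaCl2, 1 mM MgSO4, 0.5% Casamino acids.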

E. coli biofilms = test: Biofilm growth assay (spreading biofilm on semi-solid agar), E. coli; format: cell-based; conditions: biofilm growth assay, overnight 37° C., vs negative controls, Tables 1-5; for IC85: Escherichia coli, read-out: E. coli: concentration that reduces the area of the spreading biofilm by greater than or equal to 85%
Method in brief: as §1

CN(C)c1cccc(C2=C3C4CC(C)(C)CC[C@]4(C(=O)O)CC[C@@]3(C)[C@]3(C)CCC4C(C)(C)c5n[nH]c(N)c5C[C@]4(C)C3C2)c1 (stereo partly drawn) [Example 21, (4aS,6aS,6bR,13aR)-12-Amino-15-(3-(dimethylamino)phenyl)-2,2,6a,6b,9,9,13a-heptamethyl-2,3,4,4a,5,6,6a,6b,7,8,8a,9,11,13,13a,13b,14,15b-octadecahydro-1H-chryseno[1,2-f]indazole-4-a-carboxylic acid]
P. aeruginosa: concentration that reduces the area of the spreading biofilm by greater than or equal to 85% (P. aeruginosa biofilms): 0.5 µg/mL | E. coli: concentration that reduces the area of the spreading biofilm by greater than or equal to 85% (E. coli biofilms): >2 µg/mL

CC1(C)CC[C@]2(C(=O)O)CC[C@]3(C)C(=C(c4cccc(CN)c4)CC4[C@@]5(C)Cc6c(n[nH]c6N)C(C)(C)C5CC[C@]43C)C2C1 (stereo partly drawn) [Example 18, (4aS,6aS,6bR,13aR)-12-Amino-15-(3-(aminomethyl)phenyl)-2,2,6a,6b,9,9,13a-heptamethyl-2,3,4,4a,5,6,6a,6b,7,8,8a,9,11,13,13a,13b,14,15b-octadecahydro-1H-chryseno[1,2-f]indazole-4-a-carboxylic acid]
P. aeruginosa: concentration that reduces the area of the spreading biofilm by greater than or equal to 85% (P. aeruginosa biofilms): 0.5 µg/mL | E. coli: concentration that reduces the area of the spreading biofilm by greater than or equal to 85% (E. coli biofilms): 1 µg/mL

CNc1ccc(C2=C3[C@@H]4CC(C)(C)CC[C@]4(C(=O)O)CC[C@@]3(C)[C@]3(C)CC[C@H]4C(C)(C)c5n[nH]c(N)c5C[C@]4(C)C3C2)cn1 (stereo partly drawn) [Example 43, (4aS,6aS,6bR,8aR,13aR,15bS)-12-Amino-2,2,6a,6b,9,9,13a-heptamethyl-15-(6-(methylamino)pyridin-3-yl)-2,3,4,4a,5,6,6a,6b,7,8,8a,9,11,13,13a,13b,14,15b-octadecahydro-1H-chryseno[1,2-f]indazole-4-a-carboxylic acid]
P. aeruginosa: concentration that reduces the area of the spreading biofilm by greater than or equal to 85% (P. aeruginosa biofilms): 1 µg/mL | E. coli: concentration that reduces the area of the spreading biofilm by greater than or equal to 85% (E. coli biofilms): 1 µg/mL

CC1(C)CC[C@]2(C(=O)Nc3cc(O)[nH]n3)CC[C@]3(C)C(=CCC4[C@@]5(C)Cc6c(n[nH]c6N)C(C)(C)C5CC[C@]43C)C2C1 (stereo partly drawn) [Compound 66, (4aS,6aS,6bR,13aR)-12-Amino-N-(5-hydroxy-1H-pyrazol-3-yl)-2,2,6a,6b,9,9,13a-heptamethyl-2,3,4,4a,5,6,6a,6b,7,8,8a,9,11,13,13a,13b,14,15b-octadecahydro-1H-chryseno[1,2-f]indazole-4-a-carboxamide]
IC85 (P. aeruginosa biofilms): 0.25 µg/mL (≈ 0.435 µM) | IC85 (E. coli biofilms): 1 µg/mL (≈ 1.74 µM)

CC1(C)CC[C@]2(c3cc(O)[nH]n3)CC[C@]3(C)C(=CCC4[C@@]5(C)Cc6c(n[nH]c6N)C(C)(C)[C@@H]5CC[C@]43C)[C@@H]2C1 (stereo partly drawn) [Compound 68, 3-((4aS,6aS,6bR,13aR)-12-Amino-2,2,6a,6b,9,9,13a-heptamethyl-2,3,4,4a,5,6,6a,6b,7,8,8a,9,11,13,13a,13b,14,15b-octadecahydro-1H-chryseno[1,2-f]indazol-4-a-yl)-1H-pyrazol-5-ol]
IC85 (P. aeruginosa biofilms): 0.5 µg/mL (≈ 0.94 µM) | IC85 (E. coli biofilms): 0.5 µg/mL (≈ 0.94 µM)

COc1ccc(C2=C3[C@@H]4CC(C)(C)CC[C@]4(C(=O)O)CC[C@@]3(C)[C@]3(C)CC[C@H]4C(C)(C)c5n[nH]c(N)c5C[C@]4(C)C3C2)cn1 (stereo partly drawn) [Example 42, (4aS,6aS,6bR,8aR,13aR,15bS)-12-Amino-15-(6-methoxypyridin-3-yl)-2,2,6a,6b,9,9,13a-heptamethyl-2,3,4,4a,5,6,6a,6b,7,8,8a,9,11,13,13a,13b,14,15b-octadecahydro-1H-chryseno[1,2-f]indazole-4-a-carboxylic acid]
P. aeruginosa: concentration that reduces the area of the spreading biofilm by greater than or equal to 85% (P. aeruginosa biofilms): 0.25 µg/mL | E. coli: concentration that reduces the area of the spreading biofilm by greater than or equal to 85% (E. coli biofilms): 1 µg/mL

CC1(C)CC[C@]2(C(=O)O)CC[C@]3(C)C(=C(c4ccccc4N)CC4[C@@]5(C)Cc6c(n[nH]c6N)C(C)(C)C5CC[C@]43C)C2C1 (stereo partly drawn) [Example 23, (4aS,6aS,6bR,13aR)-12-Amino-15-(2-aminophenyl)-2,2,6a,6b,9,9,13a-heptamethyl-2,3,4,4a,5,6,6a,6b,7,8,8a,9,11,13,13a,13b,14,15b-octadecahydro-1H-chryseno[1,2-f]indazole-4-a-carboxylic acid]
IC85 (P. aeruginosa biofilms): 1 µg/mL (≈ 1.71 µM) | IC85 (E. coli biofilms): 2 µg/mL (≈ 3.42 µM)

C=C(C)[C@@H]1CC[C@]2(CO)CC[C@]3(C)[C@H](CC[C@@H]4[C@@]5(C)CC[C@H](O)C(C)(C)[C@@H]5CC[C@]43C)[C@@H]12 [Betulin, reference compound]
IC85 (P. aeruginosa biofilms): 16 µg/mL (≈ 36.1 µM) | IC85 (E. coli biofilms): > 16 µg/mL

CC1(C)CC[C@]2(CN)CC[C@]3(C)C(=CCC4[C@@]5(C)Cc6c(n[nH]c6N)C(C)(C)C5CC[C@]43C)C2C1 (stereo partly drawn) [Compound 63, (4aS,6aS,6bR,13aR)-4-a-(Aminomethyl)-2,2,6a,6b,9,9,13a-heptamethyl-2,3,4,4a,5,6,6a,6b,7,8,8a,9,11,13,13a,13b,14,15b-octadecahydro-1H-chryseno[1,2-f]indazol-12-amine]
IC85 (P. aeruginosa biofilms): 4 µg/mL (≈ 8.35 µM) | IC85 (E. coli biofilms): 1 µg/mL (≈ 2.09 µM)

CC1(C)CC[C@]2(C(=O)O)CC[C@]3(C)C(=C(c4ccco4)CC4[C@@]5(C)Cc6c(n[nH]c6N)C(C)(C)[C@@H]5CC[C@]43C)[C@@H]2C1 (stereo partly drawn) [Example 7, (4aS,6aS,6bR,13aR)-12-Amino-15-(furan-2-yl)-2,2,6a,6b,9,9,13a-heptamethyl-2,3,4,4a,5,6,6a,6b,7,8,8a,9,11,13,13a,13b,14,15b-octadecahydro-1H-chryseno[1,2-f]indazole-4-a-carboxylic acid]
IC85 (P. aeruginosa biofilms): 0.25 µg/mL (≈ 0.447 µM) | IC85 (E. coli biofilms): 1 µg/mL (≈ 1.79 µM)

CC1(C)CC[C@]2(C(=O)O)CC[C@]3(C)C(=C(c4cn[nH]c4)CC4[C@@]5(C)Cc6c(n[nH]c6N)C(C)(C)[C@@H]5CC[C@]43C)[C@@H]2C1 (stereo partly drawn) [Example 27, (4aS,6aS,6bR,8aR,13aR,15bS)-12-Amino-2,2,6a,6b,9,9,13a-heptamethyl-15-(1H-pyrazol-4-yl)-2,3,4,4a,5,6,6a,6b,7,8,8a,9,11,13,13a,13b,14,15b-octadecahydro-1H-chryseno[1,2-f]indazole-4-a-carboxylic acid]
P. aeruginosa: concentration that reduces the area of the spreading biofilm by greater than or equal to 85% (P. aeruginosa biofilms): 1 µg/mL | E. coli: concentration that reduces the area of the spreading biofilm by greater than or equal to 85% (E. coli biofilms): >2 µg/mL

CC1(C)CC[C@]2(C(=O)n3cnc(S)n3)CC[C@]3(C)C(=CCC4[C@@]5(C)Cc6c(n[nH]c6N)C(C)(C)C5CC[C@]43C)C2C1 (stereo partly drawn) [Compound 76, ((4aS,6aS,6bR,13aR)-12-Amino-2,2,6a,6b,9,9,13a-heptamethyl-2,3,4,4a,5,6,6a,6b,7,8,8a,9,11,13,13a,13b,14,15b-octadecahydro-1H-chryseno[1,2-f]indazol-4-a-yl)(3-mercapto-1H-1,2,4-triazol-1-yl)methanone]
IC85 (P. aeruginosa biofilms): 0.5 µg/mL (≈ 0.867 µM) | IC85 (E. coli biofilms): 2 µg/mL (≈ 3.47 µM)

CC1(C)CC[C@]2(C(=O)NO)CC[C@]3(C)C(=CCC4[C@@]5(C)Cc6c(n[nH]c6N)C(C)(C)[C@@H]5CC[C@]43C)[C@@H]2C1 (stereo partly drawn) [Compound 65, (4aS,6aS,6bR,13aR)-12-Amino-N-hydroxy-2,2,6a,6b,9,9,13a-heptamethyl-2,3,4,4a,5,6,6a,6b,7,8,8a,9,11,13,13a,13b,14,15b-octadecahydro-1H-chryseno[1,2-f]indazole-4-a-carboxamide]
IC85 (P. aeruginosa biofilms): 0.25 µg/mL (≈ 0.491 µM) | IC85 (E. coli biofilms): 0.25 µg/mL (≈ 0.491 µM)

CC1(C)CC[C@]2(C(=O)O)CC[C@]3(C)C(=C(c4ccsc4CN4CCOCC4)CC4[C@@]5(C)Cc6c(n[nH]c6N)C(C)(C)C5CC[C@]43C)C2C1 (stereo partly drawn) [Example 34, (4aS,6aS,6bR,13aR)-12-Amino-2,2,6a,6b,9,9,13a-heptamethyl-15-(2-(morpholinomethyl)thiophen-3-yl)-2,3,4,4a,5,6,6a,6b,7,8,8a,9,11,13,13a,13b,14,15b-octadecahydro-1H-chryseno[1,2-f]indazole-4-a-carboxylic acid]
P. aeruginosa: concentration that reduces the area of the spreading biofilm by greater than or equal to 85% (P. aeruginosa biofilms): 1 µg/mL | E. coli: concentration that reduces the area of the spreading biofilm by greater than or equal to 85% (E. coli biofilms): 1 µg/mL

CC1(C)CC[C@]2(C(=O)O)CC[C@]3(C)C(=C(c4coc(CN5CCNCC5)c4)CC4[C@@]5(C)Cc6c(n[nH]c6N)C(C)(C)C5CC[C@]43C)C2C1 (stereo partly drawn) [Example 39, (4aS,6aS,6bR,13aR)-12-Amino-2,2,6a,6b,9,9,13a-heptamethyl-15-(5-(piperazin-1-ylmethyl)furan-3-yl)-2,3,4,4a,5,6,6a,6b,7,8,8a,9,11,13,13a,13b,14,15b-octadecahydro-1H-chryseno[1,2-f]indazole-4-a-carboxylic acid]
P. aeruginosa: concentration that reduces the area of the spreading biofilm by greater than or equal to 85% (P. aeruginosa biofilms): 1 µg/mL | E. coli: concentration that reduces the area of the spreading biofilm by greater than or equal to 85% (E. coli biofilms): 2 µg/mL

C[C@@H]1CC[C@]2(C(=O)O)CC[C@]3(C)C(=CCC4[C@@]5(C)C[C@H](CO)[C@H](O)C(C)(C)C5CC[C@]43C)C2[C@H]1C (stereo partly drawn) [B]
P. aeruginosa: concentration that reduces the area of the spreading biofilm by greater than or equal to 85% (P. aeruginosa biofilms): 4 µg/mL | E. coli: concentration that reduces the area of the spreading biofilm by greater than or equal to 85% (E. coli biofilms): 8 µg/mL

CC1(C)CC[C@]2(C(=O)O)CC[C@]3(C)C(=C(c4ccc5[nH]ccc5c4)CC4[C@@]5(C)Cc6c(n[nH]c6N)C(C)(C)C5CC[C@]43C)C2C1 (stereo partly drawn) [Example 49, (4aS,6aS,6bR,13aR)-12-Amino-15-(1H-indol-5-yl)-2,2,6a,6b,9,9,13a-heptamethyl-2,3,4,4a,5,6,6a,6b,7,8,8a,9,11,13,13a,13b,14,15b-octadecahydro-1H-chryseno[1,2-f]indazole-4-a-carboxylic acid]
P. aeruginosa: concentration that reduces the area of the spreading biofilm by greater than or equal to 85% (P. aeruginosa biofilms): 0.5 µg/mL | E. coli: concentration that reduces the area of the spreading biofilm by greater than or equal to 85% (E. coli biofilms): >1 µg/mL

CN(C)c1ccc(C2=C3[C@@H]4CC(C)(C)CC[C@]4(C(=O)O)CC[C@@]3(C)[C@]3(C)CC[C@H]4C(C)(C)c5n[nH]c(N)c5C[C@]4(C)C3C2)cn1 (stereo partly drawn) [Example 44, (4aS,6aS,6bR,8aR,13aR,15bS)-12-Amino-15-(6-(dimethylamino)pyridin-3-yl)-2,2,6a,6b,9,9,13a-heptamethyl-2,3,4,4a,5,6,6a,6b,7,8,8a,9,11,13,13a,13b,14,15b-octadecahydro-1H-chryseno[1,2-f]indazole-4-a-carboxylic acid]
P. aeruginosa: concentration that reduces the area of the spreading biofilm by greater than or equal to 85% (P. aeruginosa biofilms): 0.5 µg/mL | E. coli: concentration that reduces the area of the spreading biofilm by greater than or equal to 85% (E. coli biofilms): 2 µg/mL
